From ChEMBL document CHEMBL1201862, “PubChem BioAssay data set” (2004)
Active and inactive are the calls of the source.

What was measured:
[1] = biological target: T1, Carboxy-terminal domain RNA polymerase II polypeptide A small phosphatase 1 (Homo sapiens, UniProt Q9GZU7); assay: CTDSP1 inhibitors, concentration-response, biochemical, absorbance readout, ultra-high-throughput screen actives (AID 540297); assay type: functional
T1 sequence (Q9GZU7 whole entry): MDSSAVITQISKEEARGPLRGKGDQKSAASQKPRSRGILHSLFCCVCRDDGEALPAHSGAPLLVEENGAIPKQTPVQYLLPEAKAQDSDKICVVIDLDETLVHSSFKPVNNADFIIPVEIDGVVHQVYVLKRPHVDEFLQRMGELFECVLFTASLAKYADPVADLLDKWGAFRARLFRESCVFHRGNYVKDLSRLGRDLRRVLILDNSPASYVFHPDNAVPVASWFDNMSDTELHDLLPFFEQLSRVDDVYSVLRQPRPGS

[2] = biological target: T2, RNA-binding protein pos-1 (Caenorhabditis elegans, UniProt G5EF15); assay: disruptors of C. elegans POS-1 RNA interaction – biochemical, fluorescence polarization, dose response (AID 1964);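 further: purified POS-1 fused to maltose binding protein made in E. coli; potency of compounds blocking POS-1 binding to fluorescent RNA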
T2 sequence (G5EF15 whole entry): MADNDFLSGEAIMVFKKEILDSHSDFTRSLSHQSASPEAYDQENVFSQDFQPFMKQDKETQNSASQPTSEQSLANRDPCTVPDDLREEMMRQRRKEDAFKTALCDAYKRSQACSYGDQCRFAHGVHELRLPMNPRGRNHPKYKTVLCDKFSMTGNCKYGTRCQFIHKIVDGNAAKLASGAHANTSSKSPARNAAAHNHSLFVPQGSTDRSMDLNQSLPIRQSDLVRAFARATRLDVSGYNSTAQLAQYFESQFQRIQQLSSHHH

[3] = biological target: T3, Zinc finger protein mex-5 (Caenorhabditis elegans, UniProt Q9XUB2); assay: potency of MEX-5 RNA-binding blockers – biochemical, C. elegans, fluorescence polarization, dose response (AID 1960)
T3 sequence (Q9XUB2 whole entry): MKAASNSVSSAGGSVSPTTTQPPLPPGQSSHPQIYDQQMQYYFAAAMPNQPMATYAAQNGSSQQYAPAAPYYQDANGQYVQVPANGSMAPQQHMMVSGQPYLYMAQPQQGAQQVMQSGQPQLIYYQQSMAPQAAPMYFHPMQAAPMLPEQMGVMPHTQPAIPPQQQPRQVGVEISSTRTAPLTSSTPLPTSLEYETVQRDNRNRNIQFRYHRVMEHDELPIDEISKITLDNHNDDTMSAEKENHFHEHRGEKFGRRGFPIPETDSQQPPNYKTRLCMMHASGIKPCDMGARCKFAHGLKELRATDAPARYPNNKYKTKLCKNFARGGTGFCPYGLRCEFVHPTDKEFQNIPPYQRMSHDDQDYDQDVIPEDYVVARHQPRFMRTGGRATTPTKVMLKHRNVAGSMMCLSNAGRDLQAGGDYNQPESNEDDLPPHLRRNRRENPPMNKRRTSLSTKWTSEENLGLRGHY

[4] = biological target: Peroxisome proliferator-activated receptor gamma/Nuclear receptor coactivator 3 (Homo sapiens, UniProt P37231); assay: TR-FRET dose response biochemical High Throughput Screening assay for agonists of the steroid receptor coactivator 3 (SRC-3) recruitment by the peroxisome proliferator-activated receptor gamma (PPAR gamma): non-selective agonists. [Related pubchem assays: 1301 (Confirmation screen.), 1048 (Primary screen.)]; assay type: functional
[5] = biological target: Peroxisome proliferator-activated receptor gamma/Nuclear receptor coactivator 2 (Homo sapiens, UniProt P37231); assay: (§1) TR-FRET dose response biochemical High Throughput Screening assay for agonists of the steroid receptor coactivator 2 (SRC-2) recruitment by the peroxisome proliferator-activated receptor gamma (PPAR gamma): non-selective agonists. [Related pubchem assays: 1297, 1032 ]; assay type: functional
Chain of Peroxisome proliferator-activated receptor gamma/Nuclear receptor coactivator 2 (P37231 whole entry): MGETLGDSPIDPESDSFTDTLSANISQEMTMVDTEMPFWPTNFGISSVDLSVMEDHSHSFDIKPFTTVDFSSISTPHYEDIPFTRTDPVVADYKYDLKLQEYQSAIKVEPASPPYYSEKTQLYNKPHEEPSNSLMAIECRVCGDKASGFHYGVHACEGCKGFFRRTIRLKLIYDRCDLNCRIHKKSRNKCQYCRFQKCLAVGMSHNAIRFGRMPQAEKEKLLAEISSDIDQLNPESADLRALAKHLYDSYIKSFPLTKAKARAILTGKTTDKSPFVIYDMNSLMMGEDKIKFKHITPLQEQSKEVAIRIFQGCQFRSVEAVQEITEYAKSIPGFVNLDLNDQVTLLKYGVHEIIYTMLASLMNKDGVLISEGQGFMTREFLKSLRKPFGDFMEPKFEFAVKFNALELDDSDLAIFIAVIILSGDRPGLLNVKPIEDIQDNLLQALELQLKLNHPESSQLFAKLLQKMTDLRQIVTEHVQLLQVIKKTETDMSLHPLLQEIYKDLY
Chain of Peroxisome proliferator-activated receptor gamma/Nuclear receptor coactivator 2 (Q15596 whole entry, further chain): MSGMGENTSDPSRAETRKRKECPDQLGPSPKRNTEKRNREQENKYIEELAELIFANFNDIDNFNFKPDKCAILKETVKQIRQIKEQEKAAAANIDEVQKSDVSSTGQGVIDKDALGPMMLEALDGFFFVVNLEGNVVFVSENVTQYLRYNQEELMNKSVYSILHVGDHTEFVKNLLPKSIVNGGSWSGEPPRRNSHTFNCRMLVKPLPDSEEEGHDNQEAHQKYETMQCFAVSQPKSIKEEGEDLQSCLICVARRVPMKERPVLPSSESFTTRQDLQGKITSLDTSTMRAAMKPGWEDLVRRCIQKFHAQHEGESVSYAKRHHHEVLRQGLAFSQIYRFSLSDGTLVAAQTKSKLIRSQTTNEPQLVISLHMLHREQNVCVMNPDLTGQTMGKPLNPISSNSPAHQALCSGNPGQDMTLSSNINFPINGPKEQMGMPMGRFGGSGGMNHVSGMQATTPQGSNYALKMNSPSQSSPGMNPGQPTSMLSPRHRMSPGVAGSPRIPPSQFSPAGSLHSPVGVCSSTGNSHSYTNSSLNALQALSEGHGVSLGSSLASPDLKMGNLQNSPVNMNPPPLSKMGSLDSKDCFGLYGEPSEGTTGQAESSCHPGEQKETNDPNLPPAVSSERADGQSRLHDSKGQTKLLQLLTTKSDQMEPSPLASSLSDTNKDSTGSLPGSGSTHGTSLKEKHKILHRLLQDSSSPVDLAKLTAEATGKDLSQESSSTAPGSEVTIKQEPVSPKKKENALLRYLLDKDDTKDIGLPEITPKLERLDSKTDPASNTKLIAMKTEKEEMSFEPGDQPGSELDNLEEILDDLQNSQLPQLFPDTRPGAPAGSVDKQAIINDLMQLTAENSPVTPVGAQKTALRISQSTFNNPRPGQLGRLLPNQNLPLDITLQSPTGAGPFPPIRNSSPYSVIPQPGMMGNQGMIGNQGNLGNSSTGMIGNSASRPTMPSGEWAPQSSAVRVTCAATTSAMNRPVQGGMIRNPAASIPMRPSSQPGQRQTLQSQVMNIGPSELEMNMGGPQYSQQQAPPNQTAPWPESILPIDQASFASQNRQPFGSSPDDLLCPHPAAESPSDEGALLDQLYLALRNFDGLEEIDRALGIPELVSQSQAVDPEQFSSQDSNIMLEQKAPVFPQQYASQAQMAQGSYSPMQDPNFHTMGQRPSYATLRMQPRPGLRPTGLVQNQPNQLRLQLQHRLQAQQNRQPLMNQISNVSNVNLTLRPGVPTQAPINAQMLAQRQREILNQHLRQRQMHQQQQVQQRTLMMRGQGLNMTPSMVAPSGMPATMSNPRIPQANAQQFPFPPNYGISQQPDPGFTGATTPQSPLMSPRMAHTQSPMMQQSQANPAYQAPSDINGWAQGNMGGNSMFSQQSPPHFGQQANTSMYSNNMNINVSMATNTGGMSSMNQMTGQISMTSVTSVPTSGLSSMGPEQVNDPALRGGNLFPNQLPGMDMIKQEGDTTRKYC

[6] = biological target: Peroxisome proliferator-activated receptor gamma/Nuclear receptor coactivator 1 (Homo sapiens, UniProt P37231); assay: as §1, with “1 (SRC-1)” for “2 (SRC-2)”, “assays (depositor defined):AID1300, AID1808, AID504735, AID631]” for “assays: 1297, 1032 ]”; assay type: protein assay
Chain of Peroxisome proliferator-activated receptor gamma/Nuclear receptor coactivator 1 (P37231 whole entry): as the sequence (P37231 whole entry) above
Chain of Peroxisome proliferator-activated receptor gamma/Nuclear receptor coactivator 1 (Q15788 whole entry, further chain): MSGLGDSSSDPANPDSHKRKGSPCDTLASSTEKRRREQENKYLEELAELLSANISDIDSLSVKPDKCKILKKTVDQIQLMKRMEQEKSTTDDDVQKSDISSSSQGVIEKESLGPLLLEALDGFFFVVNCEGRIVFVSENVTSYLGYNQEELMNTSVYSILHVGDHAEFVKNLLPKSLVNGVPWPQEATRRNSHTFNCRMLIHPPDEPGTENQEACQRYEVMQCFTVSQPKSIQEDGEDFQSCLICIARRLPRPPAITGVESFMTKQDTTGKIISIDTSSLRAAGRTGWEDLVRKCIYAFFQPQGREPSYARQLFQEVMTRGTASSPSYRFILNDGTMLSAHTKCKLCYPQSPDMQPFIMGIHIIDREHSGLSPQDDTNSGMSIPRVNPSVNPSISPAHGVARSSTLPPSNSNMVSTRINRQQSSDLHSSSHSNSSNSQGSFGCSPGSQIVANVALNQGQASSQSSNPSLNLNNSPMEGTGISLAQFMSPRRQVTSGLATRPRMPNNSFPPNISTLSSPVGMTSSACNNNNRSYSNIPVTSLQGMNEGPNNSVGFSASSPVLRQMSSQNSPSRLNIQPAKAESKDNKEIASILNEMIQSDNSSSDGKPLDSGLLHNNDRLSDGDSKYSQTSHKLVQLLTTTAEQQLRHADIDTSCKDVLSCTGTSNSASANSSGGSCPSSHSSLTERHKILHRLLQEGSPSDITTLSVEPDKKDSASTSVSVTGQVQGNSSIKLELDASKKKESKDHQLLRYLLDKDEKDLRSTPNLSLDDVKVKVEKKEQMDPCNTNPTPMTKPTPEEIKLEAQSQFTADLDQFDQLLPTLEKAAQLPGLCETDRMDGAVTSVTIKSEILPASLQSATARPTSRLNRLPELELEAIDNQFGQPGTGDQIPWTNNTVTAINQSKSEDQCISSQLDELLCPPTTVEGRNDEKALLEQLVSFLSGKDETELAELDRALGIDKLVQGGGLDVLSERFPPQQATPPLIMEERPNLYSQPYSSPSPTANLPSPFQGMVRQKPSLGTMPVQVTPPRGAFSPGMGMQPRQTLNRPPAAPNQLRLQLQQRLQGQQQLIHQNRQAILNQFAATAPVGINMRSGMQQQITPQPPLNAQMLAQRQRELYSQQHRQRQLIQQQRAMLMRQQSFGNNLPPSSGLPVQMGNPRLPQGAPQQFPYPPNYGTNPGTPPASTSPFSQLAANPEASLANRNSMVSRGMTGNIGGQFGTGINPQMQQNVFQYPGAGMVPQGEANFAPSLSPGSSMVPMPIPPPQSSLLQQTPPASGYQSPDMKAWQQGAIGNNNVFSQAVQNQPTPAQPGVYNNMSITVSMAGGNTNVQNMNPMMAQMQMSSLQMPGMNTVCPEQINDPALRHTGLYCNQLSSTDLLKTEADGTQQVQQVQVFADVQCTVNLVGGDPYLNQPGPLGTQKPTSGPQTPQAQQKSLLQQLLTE

[7] = alpha-synuclein stem-loop luciferase translation blockers – H4 neuroglioma cells, luminescence, confirmation (AID 1988); assay type: functional, cell-based
[8] = Luminescence Cell-Based Dose Response HTS to Identify Inhibitors of 5'UTR Stem-Loop Driven Prion Protein mRNA Translation in H4 Neuroglioblastoma Cells. [Related pubchem assays: 1827 (Project Summary), 1813 (Primary HTS)]; assay type: functional
[9] = biological target: Luciferin 4-monooxygenase (Photinus pyralis, UniProt P08659); assay: inhibition of purified Photinus pyralis luciferase – biochemical, luminescence, dose response (AID 1891)
Chain of Luciferin 4-monooxygenase (P08659 whole entry): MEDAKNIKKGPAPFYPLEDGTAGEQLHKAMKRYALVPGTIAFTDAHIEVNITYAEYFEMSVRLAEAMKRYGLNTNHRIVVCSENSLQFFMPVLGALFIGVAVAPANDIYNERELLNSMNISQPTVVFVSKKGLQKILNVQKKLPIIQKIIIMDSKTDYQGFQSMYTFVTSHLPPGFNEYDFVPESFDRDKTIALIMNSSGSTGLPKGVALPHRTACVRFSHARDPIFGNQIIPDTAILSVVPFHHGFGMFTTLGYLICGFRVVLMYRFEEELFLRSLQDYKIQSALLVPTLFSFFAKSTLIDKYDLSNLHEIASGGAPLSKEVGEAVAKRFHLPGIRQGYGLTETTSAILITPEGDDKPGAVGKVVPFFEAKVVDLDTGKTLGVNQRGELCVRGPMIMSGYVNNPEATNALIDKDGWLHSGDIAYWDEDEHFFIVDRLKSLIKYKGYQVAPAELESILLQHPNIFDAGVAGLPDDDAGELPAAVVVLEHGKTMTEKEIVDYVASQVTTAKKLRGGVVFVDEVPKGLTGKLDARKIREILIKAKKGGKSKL

[10] = Luminescence Cell-Based Dose Confirmation HTS to Identify Inhibitors of Platelet Dense Granule Release. [Related pubchem assays: 1663 (Primary HTS), 1678 (Summary of Project)]; assay type: functional
[11] = biological target: T4, Short transient receptor potential channel 4 (Mus musculus, UniProt Q9QUQ5); assay: block of DAMGO-driven TRPC4 calcium entry – cell-based, HEK293 TRPC4/mu-opioid, Fluo-4 calcium, dose response (AID 434942); assay type: functional;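 further: potency of inhibitors blocking the TRPC4 calcium response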
T4 sequence (Q9QUQ5 whole entry): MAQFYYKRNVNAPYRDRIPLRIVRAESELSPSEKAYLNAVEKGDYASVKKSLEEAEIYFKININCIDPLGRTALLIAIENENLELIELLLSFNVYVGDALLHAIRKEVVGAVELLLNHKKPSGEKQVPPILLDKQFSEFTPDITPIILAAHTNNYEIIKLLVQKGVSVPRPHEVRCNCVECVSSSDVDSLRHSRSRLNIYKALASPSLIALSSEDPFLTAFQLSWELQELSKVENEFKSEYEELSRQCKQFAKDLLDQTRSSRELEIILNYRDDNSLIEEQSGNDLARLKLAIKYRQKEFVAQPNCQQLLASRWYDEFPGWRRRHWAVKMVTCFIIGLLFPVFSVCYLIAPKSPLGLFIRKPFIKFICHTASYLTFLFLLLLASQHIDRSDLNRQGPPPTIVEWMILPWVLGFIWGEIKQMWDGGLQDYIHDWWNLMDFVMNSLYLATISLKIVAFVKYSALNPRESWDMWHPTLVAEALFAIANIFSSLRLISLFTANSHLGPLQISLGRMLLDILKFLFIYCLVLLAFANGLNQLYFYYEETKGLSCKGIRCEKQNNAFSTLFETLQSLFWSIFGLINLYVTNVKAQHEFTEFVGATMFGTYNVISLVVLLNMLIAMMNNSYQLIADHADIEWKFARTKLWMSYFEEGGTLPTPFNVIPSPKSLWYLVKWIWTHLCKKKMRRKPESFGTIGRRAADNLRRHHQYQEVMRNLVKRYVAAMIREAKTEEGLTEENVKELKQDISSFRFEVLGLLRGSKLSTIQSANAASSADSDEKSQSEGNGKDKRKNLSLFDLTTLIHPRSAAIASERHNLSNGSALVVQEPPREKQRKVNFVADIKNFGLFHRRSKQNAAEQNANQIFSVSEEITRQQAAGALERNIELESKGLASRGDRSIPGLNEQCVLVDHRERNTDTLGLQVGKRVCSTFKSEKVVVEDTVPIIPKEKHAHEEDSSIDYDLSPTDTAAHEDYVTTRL

Large T antigen = Large T antigen (Simian virus 40, UniProt P03070); assay type: functional, Betapolyomavirus macacae;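 further: Confirmatory-stage PubChem screen for compounds that inhibit SV40 T antigen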
Coagulation factor XII = biological target: T5, Coagulation factor XII (Homo sapiens, UniProt P00748); assay type: functional;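 further: activated factor XIIa alpha cleaving a fluorogenic AMC peptide substrate; inhibitor potency from loss of enzyme activity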
T5 sequence (P00748 whole entry): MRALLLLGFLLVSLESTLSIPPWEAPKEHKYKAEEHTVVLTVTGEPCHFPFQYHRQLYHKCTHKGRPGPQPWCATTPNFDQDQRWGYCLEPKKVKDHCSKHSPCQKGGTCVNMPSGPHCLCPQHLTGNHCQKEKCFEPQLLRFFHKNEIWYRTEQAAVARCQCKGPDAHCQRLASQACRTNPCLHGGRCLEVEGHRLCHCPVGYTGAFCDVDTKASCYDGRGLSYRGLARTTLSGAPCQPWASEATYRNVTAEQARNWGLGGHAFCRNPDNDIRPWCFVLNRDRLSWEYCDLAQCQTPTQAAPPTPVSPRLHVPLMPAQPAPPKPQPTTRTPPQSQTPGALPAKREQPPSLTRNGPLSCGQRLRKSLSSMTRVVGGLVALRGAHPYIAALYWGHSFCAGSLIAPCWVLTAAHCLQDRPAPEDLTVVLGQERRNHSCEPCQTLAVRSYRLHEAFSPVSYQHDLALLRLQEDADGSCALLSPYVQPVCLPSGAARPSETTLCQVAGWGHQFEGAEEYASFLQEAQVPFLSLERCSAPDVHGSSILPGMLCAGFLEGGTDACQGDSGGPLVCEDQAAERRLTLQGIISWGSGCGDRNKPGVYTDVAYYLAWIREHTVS

Genome polyprotein = Genome polyprotein (dengue virus type 2, UniProt P29990); assay: flavivirus cap methylation enzyme inhibition – biochemical, confirmation dose response, primary screen (AID 588689); assay type: functional

SMILES: O=C(CSc1nc2sc3c(c2c(=O)n1-c1ccccc1)CCCC3)N/N=C/c1ccc(C(=O)O)cc1
- IC50 [1]: 25.9 µM (active)

SMILES: C/C(=N\Nc1ccc(Cl)c(C(=O)O)c1)c1ccc[nH]1
- IC50 [1]: 4.28 µM (active)
- EC50 [2]: > 300 µM (not active)
- EC50 [3]: > 150 µM (not active)

SMILES: CCOC(=O)c1ccc2c(c1)nc(S)n2CC
- EC50 [4]: > 79.4 µM (not active)
- EC50 [5]: 15.7 µM (not active)
- EC50 [6]: 17.5 µM (inactive)

SMILES: c1ccc2nc(-c3nc4ccccc4[nH]3)ccc2c1
- EC50 [7]: 9.4 µM (active)
- EC50 [8]: 11.1 µM (inconclusive)
- EC50 [9]: 0.49 µM (active)
- EC50 [10]: 2.16 µM (active)

SMILES: COc1ccc(Cl)cc1N=C(N)Nc1nc(C)cc(C)n1
- EC50 [11]: 2.11 µM (active)

SMILES: O=C(Cn1cnc2c(nnn2-c2cccc(Cl)c2)c1=O)NCc1ccccc1
- IC50 [1]: 8.16 µM (active)

SMILES: Cn1c(=O)cc(SCC(=O)NCC2CCCO2)c2ccccc21 (stereo not given)
- EC50 [4]: > 79.4 µM (not active)
- EC50 [5]: > 79.4 µM (not active)
- EC50 [6]: > 79.4 µM (inactive)

SMILES: O=[N+]([O-])c1cccc(-c2nnc(C3CC3)o2)c1
- EC50 [11]: 3.76 µM (active)

SMILES: COc1cc(/C=N/Nc2nc3ccccc3[nH]2)cc(OC)c1O
- IC50 (Large T antigen): 7.09 µM (active)

SMILES: CSCCNC(=O)c1ccc(OC2CCN(CCc3ccccc3)CC2)cc1
- EC50 [11]: 0.473 µM (active)

SMILES: Cc1ccc(S(=O)(=O)N2CCCOC2CNC(=O)C(=O)NCCc2c[nH]c3ccccc23)cc1 (stereo not given)
- IC50 (Large T antigen): 86.8 µM (active)

SMILES: Fc1cccc(Nc2c3c(nc4ccccc24)CCC3)c1
- EC50 [11]: 1.19 µM (active)

SMILES: O=S(=O)(Nc1ccccc1)c1ccc(-c2csnn2)cc1
- IC50 (Coagulation factor XII): > 50 µM (inactive)

SMILES: C(=N\c1ccc(N2CCOCC2)cc1)/c1c[nH]c2ccccc12
- IC50 (Large T antigen): 4.34 µM (active)

SMILES: c1ccc(-c2nc(-c3cccs3)[nH]c2-c2ccccc2)cc1
- EC50 [4]: > 79.4 µM (not active)
- EC50 [5]: 32.3 µM (not active)
- EC50 [6]: 42.6 µM (inactive)

SMILES: Cc1ccc(-c2nc(C[S+]([O-])CC(=O)NCCCN3CC(C)CC(C)C3)c(C)o2)cc1 (stereo not given)
- EC50 [9]: > 112 µM (not active)
- EC50 [10]: > 112 µM (not active)

SMILES: N=C1/C(=C/c2ccc(Br)o2)C(=O)N=C2SC(CC(=O)N3CCCC3)=NN12
- IC50 (Large T antigen): 58.3 µM (active)
- IC50 [1]: > 80 µM (inactive)

SMILES: Cc1ccsc1/C=N/Nc1nc(O)nnc1C
- EC50 [9]: 0.519 µM (active)
- EC50 [10]: 5.47 µM (active)

SMILES: COC(=O)c1sccc1NC(=O)Nc1cccc(C)c1
- EC50 [9]: 0.21 µM (active)
- EC50 [10]: 2.5 µM (active)

SMILES: COc1ccc(C(=O)C2=C(O)C(=O)N(c3cc(C)on3)C2c2ccccc2OC)cc1 (stereo not given)
- EC50 [4]: > 79.4 µM (not active)
- EC50 [5]: 18.2 µM (not active)
- EC50 [6]: 22.9 µM (inactive)

SMILES: CN(Cc1ccccc1)c1ccc(S(=O)(=O)N2CCOCC2)cn1
- EC50 [9]: > 112 µM (not active)
- EC50 [10]: > 112 µM (not active)

SMILES: O=C(CN1C(=O)c2cccc3cccc1c23)NCc1ccc2c(c1)OCO2
- IC50 (Coagulation factor XII): > 50 µM (inactive)

SMILES: CCOc1ccccc1-c1nnc(S)o1
- EC50 [4]: > 79.4 µM (not active)
- EC50 [5]: 35.6 µM (not active)
- EC50 [6]: > 2.94 µM (inactive)

SMILES: Cc1ccc(CSc2nnc3c(n2)OC2(Nc4ccccc4-3)C(=O)Nc3ccc(F)cc32)cc1 (stereo not given)
- IC50 (Genome polyprotein): 25 µM (active)

SMILES: Cn1c(S)nnc1-c1sc2cc(C(F)(F)F)cnc2c1-c1ccccc1
- EC50 [4]: 16.3 µM (not active)
- EC50 [5]: 5.17 µM (active)
- EC50 [6]: 3.6 µM (active)

SMILES: O=C(OCC(=O)c1ccc(Cl)s1)c1ccc2ccccc2n1
- IC50 (Coagulation factor XII): > 50 µM (inactive)

SMILES: COc1ccc(-c2nc(C[S+]([O-])CC(=O)NCCc3ccc(C)cc3)c(C)o2)cc1OC (stereo not given)
- EC50 [9]: > 112 µM (not active)
- EC50 [10]: > 112 µM (not active)

SMILES: COc1ccc(O)c(CN2CCCC(C(=O)c3sccc3C)C2)c1 (stereo not given)
- EC50 [11]: 3.35 µM (active)

SMILES: CCCn1c(=O)c2ccccc2n2c(SCCOc3ccccc3)nnc12
- EC50 [11]: 5.96 µM (active)

SMILES: CCOc1ccc(N2C(=O)S/C(=C\c3cccn3C)C2=O)cc1
- EC50 [9]: > 112 µM (not active)
- EC50 [2]: > 300 µM (inconclusive)
- EC50 [3]: > 300 µM (not active)
- EC50 [10]: > 112 µM (not active)

SMILES: COC(=O)c1c(N=C(S)Nc2ccccc2Cl)sc(C)c1C
- EC50 [4]: > 79.4 µM (not active)
- EC50 [5]: 28.6 µM (not active)
- EC50 [6]: 84.9 µM (inactive)

SMILES: O=C(O)c1ccc(N=C(NS(=O)(=O)c2ccc(Cl)cc2)c2ccccc2)cc1
- IC50 (Coagulation factor XII): > 50 µM (inactive)
